Consider twelve compounds from PubChem BioAssay AID602321 (The Scripps Research Institute Molecular Screening Center, 2012).

In general, inhibition refers to the relative decrease from the control value, in per cent.

What all share (experiment): ABPP selectivity among brain hydrolases, two doses – biochemical, gel-based competitive ABPP, mouse brain membrane, set 3, selectivity assay for DAGLb inhibitor project, late-stage follow-up (AID 602321)
For test [1], the target named is Acyl-protein thioesterase 1 (Mus musculus) + Monoacylglycerol lipase ABHD6 (Mus musculus) + Acyl-protein thioesterase 2 (Mus musculus) (UniProt P97823+Q8R2Y0+Q9WTL7). To be noted: gel-based competitive ABPP fluorescence.
Chain of Acyl-protein thioesterase 1 (Mus musculus) + Monoacylglycerol lipase ABHD6 (Mus musculus) + Acyl-protein thioesterase 2 (Mus musculus) (UniProt P97823+Q8R2Y0+Q9WTL7) (P97823 whole entry, looked up): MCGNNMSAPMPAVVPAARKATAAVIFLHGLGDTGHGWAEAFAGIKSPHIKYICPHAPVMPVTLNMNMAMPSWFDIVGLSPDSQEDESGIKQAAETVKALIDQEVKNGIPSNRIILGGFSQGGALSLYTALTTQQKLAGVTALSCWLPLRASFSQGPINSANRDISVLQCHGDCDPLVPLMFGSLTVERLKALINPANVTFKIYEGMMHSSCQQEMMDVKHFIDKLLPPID
Chain of Acyl-protein thioesterase 1 (Mus musculus) + Monoacylglycerol lipase ABHD6 (Mus musculus) + Acyl-protein thioesterase 2 (Mus musculus) (UniProt P97823+Q8R2Y0+Q9WTL7) (Q8R2Y0 whole entry, looked up): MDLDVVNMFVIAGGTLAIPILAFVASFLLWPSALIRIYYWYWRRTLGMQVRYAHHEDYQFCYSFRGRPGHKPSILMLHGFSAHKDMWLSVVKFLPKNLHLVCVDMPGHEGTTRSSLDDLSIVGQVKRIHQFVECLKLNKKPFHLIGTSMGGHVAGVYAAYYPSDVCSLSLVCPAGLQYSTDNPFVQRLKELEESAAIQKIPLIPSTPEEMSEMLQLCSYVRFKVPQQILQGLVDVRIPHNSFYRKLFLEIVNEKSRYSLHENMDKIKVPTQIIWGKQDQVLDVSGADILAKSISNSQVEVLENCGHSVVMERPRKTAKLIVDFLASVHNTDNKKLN
Chain of Acyl-protein thioesterase 1 (Mus musculus) + Monoacylglycerol lipase ABHD6 (Mus musculus) + Acyl-protein thioesterase 2 (Mus musculus) (UniProt P97823+Q8R2Y0+Q9WTL7) (Q9WTL7 whole entry, looked up): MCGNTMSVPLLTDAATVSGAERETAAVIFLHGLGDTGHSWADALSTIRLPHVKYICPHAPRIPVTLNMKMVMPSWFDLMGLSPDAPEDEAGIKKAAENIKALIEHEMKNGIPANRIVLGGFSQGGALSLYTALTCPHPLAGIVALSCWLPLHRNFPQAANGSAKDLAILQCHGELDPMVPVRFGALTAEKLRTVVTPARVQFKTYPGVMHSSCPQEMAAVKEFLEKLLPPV
Test [2] relates to Acyl-protein thioesterase 1 (Mus musculus) + Monoacylglycerol lipase ABHD6 (Mus musculus) + Acyl-protein thioesterase 2 (Mus musculus). To be noted: gel-based competitive ABPP fluorescence.
For a further test, the system named is LYPLA1. The settings on record: gel-based competitive ABPP fluorescence, stronger effect = higher value.
For another test, the system named is APEH. The settings on record: gel-based competitive ABPP fluorescence, APEH, stronger effect = higher value.
Test [3] has as its target Acyl-protein thioesterase 2 (Mus musculus) (UniProt Q9WTL7). The settings on record: gel-based competitive ABPP fluorescence, stronger effect = higher value.
A further test concerns FAAH. To be noted: gel-based competitive ABPP fluorescence, stronger effect = higher value.
Test [4] addresses Monoacylglycerol lipase ABHD6 (Mus musculus) (UniProt Q8R2Y0). To be noted: gel-based competitive ABPP fluorescence, stronger effect = higher value.

The source made the active and inactive calls. The rule behind the calls is not given here.

Chain of Monoacylglycerol lipase ABHD6 (Mus musculus) (Q8R2Y0 whole entry, looked up): as the sequence (Q8R2Y0 whole entry, looked up) above
Chain of Acyl-protein thioesterase 2 (Mus musculus) (Q9WTL7 whole entry, looked up): as the sequence (Q9WTL7 whole entry, looked up) above

In the case of `O=C(O)c1cccc(-c2ccc(-c3cn(C(=O)N4CCCCC4Cc4ccccc4)nn3)cc2)c1` (stereo unspecified), in test [1], the outcome was active. In addition, the outcome in test [2] was inactive. In addition, the inhibition in the test on LYPLA1 (at 10 µM) was 15% (inactive); in the test with LYPLA1 (inhibition, at 1 µM), 0%.

Consider `O=C(O)c1cccc(-c2ccc(-c3cn(C(=O)N4CCCCC4CCc4ccccc4)nn3)cc2)c1` (stereo unspecified), for which the inhibition in the test on APEH (at 10 µM) was 0% (inactive); with APEH (inhibition, at 1 µM) it was 0%; in test [3] (LYPLA2, at 10 µM), 25% (inactive); in test [3] (LYPLA2, inhibition, at 1 µM) it was 0%; in the test with FAAH (at 10 µM), 95%; in the test with FAAH (inhibition, at 1 µM), 15%. The inhibition is 25% (inactive) in the test on LYPLA1 (at 10 µM); 0% with LYPLA1 (inhibition, at 1 µM); 98% in test [4] (at 10 µM); 98% in test [4] (inhibition, at 1 µM).

For the compound `O=C(c1ccc(-c2ccc(-c3cn(C(=O)N4CCCCC4c4ccccc4)nn3)cc2)cc1)N1CCCCC1` (stereo unspecified), the inhibition is 25% (inactive) in the test with APEH (at 10 µM); 0% with APEH (inhibition, at 1 µM); 90% in test [3] (LYPLA2, at 10 µM); 15% in test [3] (LYPLA2, inhibition, at 1 µM); 25% (inactive) in the test on FAAH (at 10 µM); 10% with FAAH (inhibition, at 1 µM). Also, the inhibition with LYPLA1 (at 10 µM) was 90%; in the test on LYPLA1 (inhibition, at 1 µM), 15%; in test [4] (at 10 µM) it was 98%; in test [4] (inhibition, at 1 µM), 98%.

For `O=C(c1cccc(-c2ccc(-c3cn(C(=O)N4CCCCC4c4ccccc4)nn3)cc2)c1)N1CCCCC1` (stereo unspecified), in test [2], the outcome was inactive. Also, the inhibition was 98% in the test with LYPLA1 (at 10 µM) and 20% in the test with LYPLA1 (inhibition, at 1 µM).

On to `NC(=O)c1ccc(-c2ccc(-c3cn(C(=O)N4CCCCC4c4ccccc4)nn3)cc2)cc1` (stereo unspecified), for which the inhibition is 25% (inactive) in the test on APEH (at 10 µM); 0% in the test with APEH (inhibition, at 1 µM); 90% in test [3] (LYPLA2, at 10 µM); 10% in test [3] (LYPLA2, inhibition, at 1 µM); 95% in the test with FAAH (at 10 µM); 10% with FAAH (inhibition, at 1 µM). The inhibition in the test on LYPLA1 (at 10 µM) was 90%; with LYPLA1 (inhibition, at 1 µM) it was 10%; in test [4] (at 10 µM) it was 98%; in test [4] (inhibition, at 1 µM), 98%.

Turning to `O=C(N1CCCCC1c1ccccc1)n1cc(-c2ccc(-c3ccc(CO)cc3)cc2)nn1` (stereo unspecified), the inhibition in the test with APEH (at 10 µM) is 25% (inactive); in the test on APEH (inhibition, at 1 µM), 0%; in test [3] (LYPLA2, at 10 µM), 90%; in test [3] (LYPLA2, inhibition, at 1 µM) it was 10%; with FAAH (at 10 µM), 90%; in the test on FAAH (inhibition, at 1 µM), 0%. The inhibition in the test with LYPLA1 (at 10 µM) is 90%; in the test with LYPLA1 (inhibition, at 1 µM), 10%; in test [4] (at 10 µM), 98%; in test [4] (inhibition, at 1 µM) it was 98%.

Regarding `O=C(N1CCCCC1Cc1ccccc1)n1cc(-c2ccc(-c3cccc(CO)c3)cc2)nn1` (stereo unspecified), the inhibition in the test on APEH (at 10 µM) is 0% (inactive); in the test with APEH (inhibition, at 1 µM), 0%; in test [3] (LYPLA2, at 10 µM), 0% (inactive); in test [3] (LYPLA2, inhibition, at 1 µM) it was 0%; in the test with FAAH (at 10 µM), 25% (inactive); in the test with FAAH (inhibition, at 1 µM) it was 0%. In addition, the inhibition with LYPLA1 (at 10 µM) is 0% (inactive); with LYPLA1 (inhibition, at 1 µM) it was 0%; in test [4] (at 10 µM) it was 98%; in test [4] (inhibition, at 1 µM), 98%.

For `O=C(c1ccc(-c2ccc(-c3cn(C(=O)N4CCCCC4Cc4ccccc4)nn3)cc2)cc1)N1CCCCC1` (stereo unspecified), the inhibition is 0% (inactive) with APEH (at 10 µM); 0% in the test on APEH (inhibition, at 1 µM); 0% (inactive) in test [3] (LYPLA2, at 10 µM); 0% in test [3] (LYPLA2, inhibition, at 1 µM); 0% (inactive) in the test with FAAH (at 10 µM); 0% with FAAH (inhibition, at 1 µM). Moreover, the inhibition in the test on LYPLA1 (at 10 µM) is 0% (inactive); with LYPLA1 (inhibition, at 1 µM) it was 0%; in test [4] (at 10 µM) it was 98%; in test [4] (inhibition, at 1 µM), 98%.

In the case of `O=C(N1CCCCC1c1ccccc1)n1cc(-c2ccc(-c3ccccc3CO)cc2)nn1` (stereo unspecified), the inhibition is 45% (inactive) in the test with APEH (at 10 µM); 0% in the test with APEH (inhibition, at 1 µM); 100% in test [3] (LYPLA2, at 10 µM); 20% in test [3] (LYPLA2, inhibition, at 1 µM); 98% in the test with FAAH (at 10 µM); 15% in the test on FAAH (inhibition, at 1 µM). Further, the inhibition in the test with LYPLA1 (at 10 µM) was 100%; in the test with LYPLA1 (inhibition, at 1 µM), 20%; in test [4] (at 10 µM), 98%; in test [4] (inhibition, at 1 µM), 98%.

Regarding `O=C(O)c1cccc(-c2ccc(-c3cn(C(=O)N4CCCCC4c4ccccc4)nn3)cc2)c1` (stereo unspecified), the inhibition was 98% in the test with APEH (at 10 µM); 80% in the test on APEH (inhibition, at 1 µM); 100% in test [3] (LYPLA2, at 10 µM); 85% in test [3] (LYPLA2, inhibition, at 1 µM); 90% in the test with FAAH (at 10 µM); 5% in the test with FAAH (inhibition, at 1 µM). Besides, the inhibition is 100% in the test on LYPLA1 (at 10 µM); 85% in the test with LYPLA1 (inhibition, at 1 µM); 98% in test [4] (at 10 µM); 98% in test [4] (inhibition, at 1 µM).

For `O=C(N1CCCCC1c1ccccc1)n1cc(-c2ccc(-c3cccc(CO)c3)cc2)nn1` (stereo unspecified), in test [1], the result was active. For the same compound, the result in test [2] was inactive. In addition, the inhibition is 95% in the test on LYPLA1 (at 10 µM) and 15% with LYPLA1 (inhibition, at 1 µM).

`O=C(O)c1ccc(-c2ccc(-c3cn(C(=O)N4CCCCC4CCc4ccccc4)nn3)cc2)cc1` (stereo unspecified): the inhibition in the test on APEH (at 10 µM) is 0% (inactive); in the test on APEH (inhibition, at 1 µM) it was 0%; in test [3] (LYPLA2, at 10 µM) it was 15% (inactive); in test [3] (LYPLA2, inhibition, at 1 µM) it was 0%; in the test with FAAH (at 10 µM), 35% (inactive); in the test on FAAH (inhibition, at 1 µM) it was 0%. Besides, the inhibition with LYPLA1 (at 10 µM) is 15% (inactive); with LYPLA1 (inhibition, at 1 µM), 0%; in test [4] (at 10 µM) it was 98%; in test [4] (inhibition, at 1 µM), 90%.
